Where only a bound is given, the exact number is not on record here.

The source of these data is ChEMBL document CHEMBL6120973 (J Med Chem, 2024).

The nature of data set [1]: Selectivity index, ratio of CC50 for human MT4 cells to EC50 for wild type HIV-1 IIIB infected in human MT4 cellS.
The subject of data set [2] is Human immunodeficiency virus 1. Put plainly: Antiviral activity against wildtype HIV-1 IIIB infected in human MT4 cells assessed as protection against virus-induced cytopathic effect incubated for 5 days by MTT assay. The data set is classed as functional, organism-based. The following applies: Human immunodeficiency virus 1, IIIB, MT4, 120 h.
Data set [3] can be described thus: Cytotoxicity against human MT4 cells assessed as reduction in cell viability measured after 5 days by MTT assay. The following applies: MT4 cells.
The subject of data set [4] is Human immunodeficiency virus 1. Put plainly: Antiviral activity against HIV-1 harboring RT Y181C mutant infected in human MT4 cells assessed as protection against virus-induced cytopathic effect incubated for 5 days by MTT assay. The data set is classed as functional, organism-based. The following applies: Human immunodeficiency virus 1, MT4, 120 h.
Data set [5] concerns Human immunodeficiency virus 1. Nature of the data set: Antiviral activity against HIV-1 harboring RT Y188L mutant infected in human MT4 cells assessed as protection against virus-induced cytopathic effect incubated for 5 days by MTT assay. The data set is classed as functional, organism-based. The following applies: Human immunodeficiency virus 1, MT4, 120 h.
Data set [6] relates to Human immunodeficiency virus 1. Nature of the data set: Antiviral activity against HIV-1 harboring RT E138K mutant infected in human MT4 cells assessed as protection against virus-induced cytopathic effect incubated for 5 days by MTT assay. The format is functional, organism-based. The following applies: Human immunodeficiency virus 1, MT4, 120 h.
For data set [7], the system named is Human immunodeficiency virus 1. Nature of the data set: Antiviral activity against HIV-1 harboring RT K103N mutant infected in human MT4 cells assessed as protection against virus-induced cytopathic effect incubated for 5 days by MTT assay. The format is functional, organism-based. The following applies: Human immunodeficiency virus 1, MT4, 120 h.
Data set [8] deals with Human immunodeficiency virus 1. Put plainly: Antiviral activity against HIV-1 harboring RT K103N/Y181C double mutant infected in human MT4 cells assessed as protection against virus-induced cytopathic effect incubated for 5 days by MTT assay. The data set is classed as functional, organism-based. The following applies: Human immunodeficiency virus 1, MT4, 120 h.
The subject of data set [9] is Human immunodeficiency virus 1. Nature of the data set: Antiviral activity against HIV-1 harboring RT F227L/V106A double mutant infected in human MT4 cells assessed as protection against virus-induced cytopathic effect incubated for 5 days by MTT assay. The format is functional, organism-based. The following applies: Human immunodeficiency virus 1, MT4, 120 h.
The subject of data set [10] is Human immunodeficiency virus 1. Put plainly: Antiviral activity against HIV-1 harboring RT L100I mutant infected in human MT4 cells assessed as protection against virus-induced cytopathic effect incubated for 5 days by MTT assay. The format is functional, organism-based. The following applies: Human immunodeficiency virus 1, MT4, 120 h.
Data set [11] has as its target Human immunodeficiency virus type 1 reverse transcriptase (Human immunodeficiency virus 1, UniProt Q72547). Put plainly: Inhibition of recombinant wild type HIV-1 Reverse transcriptase incubated for 40 mins by Pico-green reagent based fluorescence analysis.

Regarding `N#Cc1ccc(Nc2ncc(-c3cncc(F)c3)c(Nc3c(F)cc(-c4ccncc4)cc3F)n2)cc1`, in data set [1] (MT4 cells), the selectivity ratio was 9400. Also, the EC50 in [2] amounted to 17 nM. The CC50 at 120 h in data set [3] was 156 µM.
In the same order, the values of `Cc1cc(-c2ccncc2)cc(C)c1Nc1nc(Nc2ccc(C#N)cc2)ncc1-c1ccc(N(C)C)nc1` are over 350, 112 nM and over 39 µM.
The like results for `Cc1cc(-c2cnc(Nc3ccc(C#N)cc3)nc2Nc2c(C)cc(-c3ccncc3)cc2C)cnc1Cl` were, in that order, over 5560, 43 nM and over 242 µM.
With `N#Cc1ccc(Nc2ncc(-c3ccc(F)nc3)c(Nc3c(F)cc(-c4ccncc4)cc3F)n2)cc1`, in data set [1] (MT4 cells), the selectivity ratio stood at 18500. Moreover, the EC50 in data set [2] worked out at 9 nM. Moreover, the CC50 at 120 h in data set [3] is 167 µM.
For the compound `Cc1cc(-c2cnc(Nc3ccc(C#N)cc3)nc2Nc2c(F)cc(-c3ccncc3)cc2F)cnc1Cl`, the selectivity ratio in [1] (MT4 cells) is over 1560. Also, the EC50 in data set [2] stood at 153 nM. Besides, the CC50 at 120 h in data set [3] is over 238 µM.
Turning to `COc1ncc(-c2cnc(Nc3ccc(C#N)cc3)nc2Nc2c(C)cc(-c3ccncc3)cc2C)cc1N`, the EC50 in data set [4] was found to be 31 nM; in [5] it was 66 nM; in data set [2] it was 7 nM; in [6], 14 nM; in [7], 10 nM; in [8], 114 nM. For the same compound, the results for the EC50 in data set [9] and in data set [10] were 1100 nM and 48 nM, respectively. Further, the selectivity ratio in data set [1] (MT4 cells) came out at 11300. In addition, in [3], the CC50 at 120 h came to 81.1 µM.
Take `N#Cc1ccc(Nc2ncc(-c3ccsc3)c(Nc3c(F)cc(-c4ccncc4)cc3F)n2)cc1`: the selectivity ratio in data set [1] (MT4 cells) worked out at 10100. Besides, the EC50 in data set [2] was found to be 7 nM. Besides, the CC50 at 120 h in data set [3] was 72.1 µM. Further, the IC50 in [11] was found to be 73 nM.
`Cc1cc(-c2cnc(Nc3ccc(C#N)cc3)nc2Nc2c(F)cc(-c3ccncc3)cc2F)ccn1`: the selectivity ratio in data set [1] (MT4 cells) is 8090. Also, the concentration giving a half-maximal response (EC50) in data set [2] was 20 nM. For the same compound, the CC50 at 120 h in data set [3] was found to be 162 µM.
For the compound `N#Cc1ccc(Nc2ncc(-c3cccnc3)c(Nc3c(F)cc(-c4ccncc4)cc3F)n2)cc1`, the selectivity ratio in data set [1] (MT4 cells) was over 2250. In addition, the EC50 in data set [2] was 19 nM. Moreover, the CC50 at 120 h in data set [3] was over 41.9 µM.
Consider `N#Cc1ccc(Nc2ncc(-c3ccnc(Cl)c3)c(Nc3c(F)cc(-c4ccncc4)cc3F)n2)cc1`, for which the selectivity ratio in [1] (MT4 cells) amounted to 14100. Also, the EC50 in [2] came to 7 nM. In addition, the CC50 at 120 h in data set [3] is 103 µM. For the same compound, the IC50 in data set [11] worked out at 138 nM.
With `N#Cc1ccc(Nc2ncc(-c3cncc(Cl)c3)c(Nc3c(F)cc(-c4ccncc4)cc3F)n2)cc1`, the selectivity ratio in data set [1] (MT4 cells) came to 9340. Moreover, the EC50 in data set [2] was 17 nM. In addition, in [3], the CC50 at 120 h turned out to be 159 µM.
The like results for `Cc1cncc(-c2cnc(Nc3ccc(C#N)cc3)nc2Nc2c(C)cc(-c3ccncc3)cc2C)c1` were, in that order, 656, 18 nM and 11.5 µM.
The like results for `Cc1cncc(-c2cnc(Nc3ccc(C#N)cc3)nc2Nc2c(F)cc(-c3ccncc3)cc2F)c1` were, in that order, 2540, 41 nM and 104 µM.
In the same order, the values of `Cc1cc(-c2cnc(Nc3ccc(C#N)cc3)nc2Nc2c(F)cc(-c3ccncc3)cc2F)cc(C)n1` are 984, 100 nM and 97.9 µM.
For `N#Cc1ccc(Nc2ncc(-c3ccnc(F)c3)c(Nc3c(F)cc(-c4ccncc4)cc3F)n2)cc1`, the selectivity ratio in data set [1] (MT4 cells) is 12300. The EC50 in data set [2] was determined as 10 nM. Besides, the CC50 at 120 h in data set [3] stood at 121 µM. Besides, the IC50 in data set [11] was found to be 127 nM.
For the compound `N#Cc1ccc(Nc2ncc(-c3ccc(Cl)nc3)c(Nc3c(F)cc(-c4ccncc4)cc3F)n2)cc1`, in data set [1] (MT4 cells), the selectivity ratio was 19100. The EC50 in [2] came out at 10 nM. The CC50 at 120 h in data set [3] amounted to 196 µM.
Consider `Cc1ccc(-c2cnc(Nc3ccc(C#N)cc3)nc2Nc2c(F)cc(-c3ccncc3)cc2F)cn1`, for which the selectivity ratio in [1] (MT4 cells) is 7300. Further, the EC50 in data set [2] amounted to 27 nM. In [3], the CC50 at 120 h stood at 194 µM.
In the same order, the values of `Cc1cc(-c2cnc(Nc3ccc(C#N)cc3)nc2Nc2c(C)cc(-c3ccncc3)cc2C)cnc1F` are over 7640, 33 nM and over 249 µM.
The like results for `Cc1cc(-c2cnc(Nc3ccc(C#N)cc3)nc2Nc2c(C)cc(-c3ccncc3)cc2C)cc(C)n1` were, in that order, 563, 64 nM and 36.1 µM.
In the case of `N#Cc1ccc(Nc2ncc(-c3ccco3)c(Nc3c(F)cc(-c4ccncc4)cc3F)n2)cc1`, the selectivity ratio in data set [1] (MT4 cells) was over 6300. For the same compound, in data set [2], the EC50 turned out to be 7 nM. Moreover, the CC50 at 120 h in data set [3] was over 42.9 µM. Further, in data set [11], the IC50 was 77 nM.
In the case of `Cc1cc(-c2cnc(Nc3ccc(C#N)cc3)nc2Nc2c(F)cc(-c3ccncc3)cc2F)cnc1F`, the selectivity ratio in [1] (MT4 cells) is over 9800. In addition, the EC50 in data set [2] was found to be 25 nM. Besides, the CC50 at 120 h in data set [3] is over 246 µM.
As to `Cc1cc(-c2ccncc2)cc(C)c1Nc1nc(Nc2ccc(C#N)cc2)ncc1-c1ccc(Cl)nc1`, in data set [1] (MT4 cells), the selectivity ratio is 3990. Moreover, the EC50 in data set [2] was determined as 1 nM. In addition, in data set [3], the cytotoxic concentration (CC50) at 120 h turned out to be 3.98 µM. In [11], the IC50 was found to be 175 nM.
As for `COc1ccc(-c2cnc(Nc3ccc(C#N)cc3)nc2Nc2c(F)cc(-c3ccncc3)cc2F)cn1`, the selectivity ratio in data set [1] (MT4 cells) was found to be 6430. In data set [2], the EC50 worked out at 26 nM. Moreover, in [3], the CC50 at 120 h was determined as 169 µM.
In the same order, the values of `Cc1cc(-c2ccncc2)cc(C)c1Nc1nc(Nc2ccc(C#N)cc2)ncc1-c1cncc(F)c1` are over 6000, 43 nM and over 257 µM.
The like results for `N#Cc1ccc(Nc2ncc(-c3ccc(N)nc3)c(Nc3c(F)cc(-c4ccncc4)cc3F)n2)cc1` were, in that order, 5790, 25 nM and 143 µM.
Take `COc1ccc(-c2cnc(Nc3ccc(C#N)cc3)nc2Nc2c(C)cc(-c3ccncc3)cc2C)cn1`: the selectivity ratio in data set [1] (MT4 cells) is over 3270. For the same compound, the EC50 in data set [2] was found to be 77 nM. Moreover, in data set [3], the CC50 at 120 h was over 250 µM.
In the same order, the values of `N#Cc1ccc(Nc2ncc(-c3cncc(N)c3)c(Nc3c(F)cc(-c4ccncc4)cc3F)n2)cc1` are 2380, 70 nM and 167 µM.
The like results for `COc1ncc(-c2cnc(Nc3ccc(C#N)cc3)nc2Nc2c(F)cc(-c3ccncc3)cc2F)cc1F` were, in that order, over 4810, 49 nM and over 238 µM.
In the same order, the values of `COc1cc(-c2cnc(Nc3ccc(C#N)cc3)nc2Nc2c(F)cc(-c3ccncc3)cc2F)ccn1` are over 12400, 20 nM and over 246 µM.
For `COc1ncc(-c2cnc(Nc3ccc(C#N)cc3)nc2Nc2c(F)cc(-c3ccncc3)cc2F)cc1N`, the selectivity ratio in [1] (MT4 cells) was 4930. In [2], the EC50 came out at 44 nM. In data set [3], the CC50 at 120 h amounted to 215 µM.
With `N#Cc1ccc(Nc2ncc(-c3cccs3)c(Nc3c(F)cc(-c4ccncc4)cc3F)n2)cc1`, the selectivity ratio in data set [1] (MT4 cells) was found to be 2170. In addition, in data set [2], the EC50 was 11 nM. For the same compound, the CC50 at 120 h in [3] came to 23.4 µM. Further, the IC50 in [11] was 105 nM.
For `N#Cc1ccc(Nc2ncc(-c3ccncc3)c(Nc3c(F)cc(-c4ccncc4)cc3F)n2)cc1`, in [1] (MT4 cells), the selectivity ratio is over 4360. The EC50 in data set [2] is 10 nM. The CC50 at 120 h in data set [3] is over 41.9 µM.
In the same order, the values of `Cc1cc(-c2ccncc2)cc(C)c1Nc1nc(Nc2ccc(C#N)cc2)ncc1-c1ccc(C(F)(F)F)nc1` are over 822, 45 nM and over 3720 µM.
In the same order, the values of `CN(C)c1ccc(-c2cnc(Nc3ccc(C#N)cc3)nc2Nc2c(F)cc(-c3ccncc3)cc2F)cn1` are 714, 74 nM and 52.9 µM.
On to `Cn1c(Cn2ccc(C(F)(F)F)c(Oc3cc(Cl)cc(C#N)c3)c2=O)n[nH]c1=O` [DORAVIRINE], for which the IC50 in data set [11] worked out at 33 nM.
Regarding `O=C1Nc2ccc(Cl)cc2[C@@](C#CC2CC2)(C(F)(F)F)O1` [EFAVIRENZ], the EC50 in data set [4] was found to be 6 nM; in data set [2], 45 nM; in data set [7], 59 nM; in data set [9], 181 nM; in [10] it was 24 nM. In [3], the CC50 at 120 h is over 7.49 µM.
Turning to `Cc1ccnc2c1NC(=O)c1cccnc1N2C1CC1` [NEVIRAPINE], the EC50 was over 10000 nM in data set [5]; 142 nM in [6]; over 10000 nM in data set [8]; over 10000 nM in data set [9]; 1790 nM in data set [10]. Besides, the CC50 at 120 h in [3] is over 15 µM.
On to `Cc1cn([C@H]2C[C@H](N=[N+]=[N-])[C@@H](CO)O2)c(=O)[nH]c1=O` [ZIDOVUDINE], for which the EC50 stood at 37 nM in data set [4]; 33 nM in data set [5]; 26 nM in [2]; 30 nM in data set [6]; 25 nM in [7]; 28 nM in [9]. Moreover, the selectivity ratio in data set [1] (mt4) is over 9710. In addition, in [3], the CC50 at 120 h is over 248 µM.
